Legend:
Format in all cases: in vivo
[1] = system: directly sowed rice plant; assay: Test Example 3: effect on crop by foliage application, Wagner pot (symbol b); conditions: application herbicide amount 320 g/ha
In short: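 Steps: fill a 1/10000-are Wagner pot with alluvial soil; add water and mix to submerge at 0.1–0.5 cm depth; sow rice plus Echinochloa crus-galli var. crus-galli, Leptochloa chinensis and Cyperus difformis; grow in a 25–30 °C greenhouse.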

Leptochloa chinensis = assay: Test Example 3: herbicidal effect by foliage application, Wagner pot (symbol D); conditions: application herbicide amount 320 g/ha
In short: (§1)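 Rating at 3 weeks post-spray, by defined criteria. Treatment: emulsion diluted with water to a predetermined amount, applied evenly to foliage of 14-day-old plants raised in alluvial soil flooded 0.1–0.5 cm deep at 25–30 °C, rice co-sown.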

wheat = assay: Test Example 5: effect on crop by foliage application, plastic box (symbol e); conditions: 320 g/ha, 3 weeks after application
In short: (§2)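 Diluvial soil, sterilized and boxed (21 × 13 × 7 cm), received spot-sown seed covered by about 1.5 cm soil; plants were then greenhouse-grown at 25–30° C.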

Chenopodium album = assay: Test Example 5: herbicidal effect by foliage application, plastic box (symbol O); conditions: 320 g/ha, 3 weeks after application
In short: (§3)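 Sowing in sterilized diluvial soil, 14 days' greenhouse growth at 25° C. to 30° C., then uniform small-sprayer foliar application of aqueous emulsion dilution; plants scored three weeks afterwards.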

Stellaria media = assay: Test Example 5: herbicidal effect by foliage application, plastic box (symbol P); conditions: 320 g/ha, 3 weeks after application
In short: as §3

Amaranthus retroflexus = assay: Test Example 4: herbicidal effect by soil treatment (symbol N); conditions: application herbicide amount 320 g/ha
In short: (§4)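 Seeds were sown in sterilized diluvial soil, covered with about 1.5 cm of soil, and the soil surface was sprayed with a water-diluted emulsion of the compound at a predetermined rate. Plants grew in a greenhouse at 25° C. to 30° C.; effects were scored visually 3 weeks after application.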

Lolium multiflorum Lam. [2] = assay: Test Example 4: herbicidal effect by soil treatment (symbol K); conditions: application herbicide amount 320 g/ha
In short: as §4

Cyperus difformis = assay: Test Example 3: herbicidal effect by foliage application, Wagner pot (symbol E); conditions: application herbicide amount 320 g/ha
In short: as §1

[3] = system: Echinochloa crus-galli var. crus-galli; assay: Test Example 4: herbicidal effect by soil treatment (symbol H); conditions: application herbicide amount 320 g/ha
In short: as §4

Lolium multiflorum Lam. [4] = assay: Test Example 5: herbicidal effect by foliage application, plastic box (symbol K); conditions: 320 g/ha, 3 weeks after application
In short: as §3

Abutilon theophrasti [5] = assay: Test Example 4: herbicidal effect by soil treatment (symbol M); conditions: application herbicide amount 320 g/ha
In short: as §4

beet = assay: Test Example 5: effect on crop by foliage application, plastic box (symbol f); conditions: 320 g/ha, 3 weeks after application
In short: as §2

Avena fatua = assay: Test Example 5: herbicidal effect by foliage application, plastic box (symbol I); conditions: 320 g/ha, 3 weeks after application
In short: as §3

Abutilon theophrasti [6] = assay: Test Example 5: herbicidal effect by foliage application, plastic box (symbol M); conditions: 320 g/ha, 3 weeks after application
In short: as §3

Digitaria ciliaris = assay: Test Example 4: herbicidal effect by soil treatment (symbol F); conditions: application herbicide amount 320 g/ha
In short: as §4

rapeseed = assay: Test Example 5: effect on crop by foliage application, plastic box (symbol g); conditions: 320 g/ha, 3 weeks after application
In short: as §2

corn [7] = assay: Test Example 5: effect on crop by foliage application, plastic box (symbol c); conditions: 320 g/ha, 3 weeks after application
In short: as §2

Apera spica-venti = assay: Test Example 5: herbicidal effect by foliage application, plastic box (symbol L); conditions: 320 g/ha, 3 weeks after application
In short: as §3

soybean = assay: Test Example 4: effect on crop by soil treatment (symbol d); conditions: application herbicide amount 320 g/ha
In short: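 Seeds were sown in spots on sterilized diluvial soil in a plastic box and covered with about 1.5 cm of soil. Plants were then grown in a greenhouse at 25° C. to 30° C.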

Setaria viridis = assay: Test Example 5: herbicidal effect by foliage application, plastic box (symbol G); conditions: 320 g/ha, 3 weeks after application
In short: as §3

corn [8] = assay: Test Example 4: effect on crop by soil treatment (symbol c); conditions: application herbicide amount 320 g/ha
In short: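 The test used sterilized diluvial soil. Seed was set down in spots and overlaid with about 1.5 cm of soil before growth in a greenhouse kept at 25° C. to 30° C.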

Structure (SMILES)	effect on crop b (directly sowed rice plant), grade 0-5 [1]	herbicidal effect on D (Leptochloa chinensis), grade 0-5 (Leptochloa chinensis)	e: wheat, effect on crop grade (wheat)	O: Chenopodium album, herbicidal effect grade (Chenopodium album)	P: Stellaria media, herbicidal effect grade (Stellaria media)	N: Amaranthus retroflexus, herbicidal effect grade (Amaranthus retroflexus)	K: Lolium multiflorum Lam., herbicidal effect grade (Lolium multiflorum Lam. [2])	herbicidal effect on E, grade 0-5 (Cyperus difformis)	H: Echinochloa crus-galli var. crus-galli, herbicidal effect grade [3]	K: Lolium multiflorum Lam., herbicidal effect grade (Lolium multiflorum Lam. [4])	M: Abutilon theophrasti, herbicidal effect grade (Abutilon theophrasti [5])	f: beet, effect on crop grade (beet)	I: Avena fatua, herbicidal effect grade (Avena fatua)	M: Abutilon theophrasti, herbicidal effect grade (Abutilon theophrasti [6])	F: Digitaria ciliaris, herbicidal effect grade (Digitaria ciliaris)	g: rapeseed, effect on crop grade (rapeseed)	c: corn, effect on crop grade (corn [7])	L: Apera spica-venti, herbicidal effect grade (Apera spica-venti)	d: soybean, effect on crop grade (soybean)	G: Setaria viridis, herbicidal effect grade (Setaria viridis)	also measured
CON=C(C)CC1CC(O)=C(c2c(C)cc(-c3ccc(Cl)cc3)cc2C)C1=O (mixture of isomers) [6-029]	5 (Herbicidal ratio of 90% or more (almost completely withered))	5 (Herbicidal ratio of 90% or more (almost completely withered))	5 (Herbicidal ratio of 90% or more (almost completely withered))	4 (Herbicidal ratio of 70% or higher and lower than 90%)	3 (Herbicidal ratio of 40% or higher and lower than 70%)	0 (Herbicidal ratio of 5% or lower (almost no effect))	5 (Herbicidal ratio of 90% or more (almost completely withered))	5 (Herbicidal ratio of 90% or more (almost completely withered))	5 (Herbicidal ratio of 90% or more (almost completely withered))	5 (Herbicidal ratio of 90% or more (almost completely withered))	0 (Herbicidal ratio of 5% or lower (almost no effect))	0 (Herbicidal ratio of 5% or lower (almost no effect))	5 (Herbicidal ratio of 90% or more (almost completely withered))	4 (Herbicidal ratio of 70% or higher and lower than 90%)	5 (Herbicidal ratio of 90% or more (almost completely withered))	4 (Herbicidal ratio of 70% or higher and lower than 90%)	5 (Herbicidal ratio of 90% or more (almost completely withered))	5 (Herbicidal ratio of 90% or more (almost completely withered))	0 (Herbicidal ratio of 5% or lower (almost no effect))	5 (Herbicidal ratio of 90% or more (almost completely withered))	c: corn, effect on crop grade (corn [8]): 2 (Herbicidal ratio of 20% or higher and lower than 40%)
C=Cc1cc(C)c(C2=C(O)CC(CC(C)=NOC)C2=O)c(C)c1 (mixture of isomers) [6-031]	4 (Herbicidal ratio of 70% or higher and lower than 90%)	2 (Herbicidal ratio of 20% or higher and lower than 40%)	0 (Herbicidal ratio of 5% or lower (almost no effect))	3 (Herbicidal ratio of 40% or higher and lower than 70%)	0 (Herbicidal ratio of 5% or lower (almost no effect))	4 (Herbicidal ratio of 70% or higher and lower than 90%)	3 (Herbicidal ratio of 40% or higher and lower than 70%)	2 (Herbicidal ratio of 20% or higher and lower than 40%)	0 (Herbicidal ratio of 5% or lower (almost no effect))	5 (Herbicidal ratio of 90% or more (almost completely withered))	0 (Herbicidal ratio of 5% or lower (almost no effect))	0 (Herbicidal ratio of 5% or lower (almost no effect))	5 (Herbicidal ratio of 90% or more (almost completely withered))	2 (Herbicidal ratio of 20% or higher and lower than 40%)	0 (Herbicidal ratio of 5% or lower (almost no effect))	3 (Herbicidal ratio of 40% or higher and lower than 70%)	4 (Herbicidal ratio of 70% or higher and lower than 90%)	4 (Herbicidal ratio of 70% or higher and lower than 90%)	0 (Herbicidal ratio of 5% or lower (almost no effect))	5 (Herbicidal ratio of 90% or more (almost completely withered))	c: corn, effect on crop grade (corn [8]): 0 (Herbicidal ratio of 5% or lower (almost no effect))
CON=C(C)CC1CC(O)=C(c2c(C)cc(-c3cccc(Cl)c3)cc2C)C1=O (mixture of isomers) [6-034]	5 (Herbicidal ratio of 90% or more (almost completely withered))	5 (Herbicidal ratio of 90% or more (almost completely withered))	0 (Herbicidal ratio of 5% or lower (almost no effect))	3 (Herbicidal ratio of 40% or higher and lower than 70%)	3 (Herbicidal ratio of 40% or higher and lower than 70%)	2 (Herbicidal ratio of 20% or higher and lower than 40%)	5 (Herbicidal ratio of 90% or more (almost completely withered))	4 (Herbicidal ratio of 70% or higher and lower than 90%)	5 (Herbicidal ratio of 90% or more (almost completely withered))	4 (Herbicidal ratio of 70% or higher and lower than 90%)	1 (Herbicidal ratio of 5% or higher and lower than 20%)	0 (Herbicidal ratio of 5% or lower (almost no effect))	5 (Herbicidal ratio of 90% or more (almost completely withered))	3 (Herbicidal ratio of 40% or higher and lower than 70%)	5 (Herbicidal ratio of 90% or more (almost completely withered))	4 (Herbicidal ratio of 70% or higher and lower than 90%)	5 (Herbicidal ratio of 90% or more (almost completely withered))	5 (Herbicidal ratio of 90% or more (almost completely withered))	0 (Herbicidal ratio of 5% or lower (almost no effect))	5 (Herbicidal ratio of 90% or more (almost completely withered))	c: corn, effect on crop grade (corn [8]): 1 (Herbicidal ratio of 5% or higher and lower than 20%)
CON=C(C)CC1CC(O)=C(c2c(C)cc(-c3ccc(Cl)nc3)cc2C)C1=O (mixture of isomers) [6-035]	5 (Herbicidal ratio of 90% or more (almost completely withered))	5 (Herbicidal ratio of 90% or more (almost completely withered))	4 (Herbicidal ratio of 70% or higher and lower than 90%)	3 (Herbicidal ratio of 40% or higher and lower than 70%)	3 (Herbicidal ratio of 40% or higher and lower than 70%)	0 (Herbicidal ratio of 5% or lower (almost no effect))	5 (Herbicidal ratio of 90% or more (almost completely withered))	5 (Herbicidal ratio of 90% or more (almost completely withered))	5 (Herbicidal ratio of 90% or more (almost completely withered))	5 (Herbicidal ratio of 90% or more (almost completely withered))	0 (Herbicidal ratio of 5% or lower (almost no effect))	0 (Herbicidal ratio of 5% or lower (almost no effect))	5 (Herbicidal ratio of 90% or more (almost completely withered))	4 (Herbicidal ratio of 70% or higher and lower than 90%)	5 (Herbicidal ratio of 90% or more (almost completely withered))	4 (Herbicidal ratio of 70% or higher and lower than 90%)	5 (Herbicidal ratio of 90% or more (almost completely withered))	5 (Herbicidal ratio of 90% or more (almost completely withered))	0 (Herbicidal ratio of 5% or lower (almost no effect))	5 (Herbicidal ratio of 90% or more (almost completely withered))	c: corn, effect on crop grade (corn [8]): 2 (Herbicidal ratio of 20% or higher and lower than 40%)
